The values below come from US7452885B2, “Amino-5-(6-membered)heteroarylimidazolone compounds and the use thereof for β-secretase modulation” (Wyeth, priority 2005, dated 2008).

Read-outs that look alike come from different tables or passages of the source.

One data set addresses human BACE1 (Homo sapiens, UniProt P56817). Nature of the data set: Fluorescent kinetic assay, BACE-1 (Example 114). The class given is biochemical. Here is the method:
Evaluation of BACE-1 Binding Affinity of Test Compounds
Fluorescent Kinetic Assays
Dilution and mixing steps: total reaction volume: 100 μL
100 μM substrate dilution in 1×PBS was prepared, and
Fluorescence Readings: Readings at λex 320 nm and εem 420 nm are taken every 40 sec for 30 min at room temperature and the linear slope for substrate cleavage rate (vi) determined.

Setting [1] is: 10 nM human BACE1, 25 μM substrate WABC-6, 50 mM Na-Acetate pH 4.5, room temperature, read-out: BACE-1 (IC50 μM).

Sequence of human BACE1 (P56817 46-501): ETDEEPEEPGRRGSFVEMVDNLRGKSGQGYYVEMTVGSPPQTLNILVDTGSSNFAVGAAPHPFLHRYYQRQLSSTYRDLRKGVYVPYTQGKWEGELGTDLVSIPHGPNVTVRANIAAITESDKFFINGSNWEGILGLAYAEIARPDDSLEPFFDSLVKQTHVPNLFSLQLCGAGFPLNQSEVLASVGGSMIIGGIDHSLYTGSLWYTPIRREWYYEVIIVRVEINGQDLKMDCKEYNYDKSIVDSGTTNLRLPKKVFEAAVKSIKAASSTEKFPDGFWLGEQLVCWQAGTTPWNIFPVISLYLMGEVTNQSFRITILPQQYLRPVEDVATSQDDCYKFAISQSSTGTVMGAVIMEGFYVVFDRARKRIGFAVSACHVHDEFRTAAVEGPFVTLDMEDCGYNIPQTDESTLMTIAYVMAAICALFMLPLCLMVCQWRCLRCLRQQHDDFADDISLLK

Consider `CCc1cc(C2(c3ccc(F)c(-c4cnccc4F)c3)N=C(N)N(C)C2=O)cc(CC)n1` (stereo not shown), for which the melting point (in general, the temperature, or range, at which the solid turns liquid) was 92 to 100 °C.

`CN1C(=O)C(c2ccccc2)(c2ccncc2)N=C1N` (stereo not shown) [Example 23, 2-Amino-3-methyl-5-phenyl-5-pyridin-4-yl-3,5-dihydro-4H-imidazol-4-one]: the IC50 (usually the concentration that inhibits the measured activity by half) at human BACE1 was over 1 µM.

The compound `CN1C(=O)C(c2cccnc2)(c2cccc(-c3ccccc3)c2)N=C1N` (stereo not shown) [Example 27] showed a melting point of 212 to 214 °C. For the same compound, the IC50 at human BACE1 (setting [1]) was 0.11 to 1 µM.

In turn, `CN1C(=O)C(c2ccccc2)(c2cccnc2)N=C1N` (stereo not shown) [Example 28] showed a melting point of 205 to 206 °C. Further, at human BACE1 (setting [1]), the IC50 is over 1 µM.

On human BACE1, `CN1C(=O)C(c2ccncc2)(c2cccc(-c3cc(F)cc(F)c3)c2)N=C1N` (stereo not shown) [Example 31] returned an IC50 of 0.01 to 0.1 µM.

In turn, `CN1C(=O)C(c2ccncc2)(c2cccc(-c3cccc(C(F)(F)F)c3)c2)N=C1N` (stereo not shown) [Example 32] gave a melting point of 234 °C. Moreover, the IC50 at human BACE1 lay in the range of 0.11 to 1 µM.

The compound `COc1cncc(-c2cccc(C3(c4ccncc4)N=C(N)N(C)C3=O)c2)c1` (stereo not shown) [Example 33] gave a melting point of 198 to 200 °C. On human BACE1, this compound yielded an IC50 of 0.01 to 0.1 µM.

Turning to `COc1cccc(-c2cccc(C3(c4ccncc4)N=C(N)N(C)C3=O)c2)c1` (stereo not shown) [Example 34], the IC50 against human BACE1 is 0.01 to 0.1 µM.

`CN1C(=O)C(c2ccncc2)(c2cccc(-c3cccc(O)c3)c2)N=C1N` (stereo not shown) [Example 35] showed a melting point of 263 to 265 °C. Further, on human BACE1, the IC50 lay within 0.11 to 1 µM.

For `CN1C(=O)C(c2ccncc2)(c2cccc(-c3cccc(CO)c3)c2)N=C1N` (stereo not shown) [Example 36], the melting point is 177 to 179 °C. This compound also came in with an IC50 at human BACE1 of 0.11 to 1 µM.

Take `CN1C(=O)C(c2ccncc2)(c2cccc(-c3cccc(C(N)=O)c3)c2)N=C1N` (stereo not shown) [Example 37]: the melting point was 188 to 190 °C. The IC50 on human BACE1 is 0.11 to 1 µM.

Compound `CC(=O)c1cccc(-c2cccc(C3(c4ccncc4)N=C(N)N(C)C3=O)c2)c1` (stereo not shown) [Example 38] had a melting point of 218 to 220 °C. The compound further registered an IC50 against human BACE1 of 0.11 to 1 µM.

As to `COc1ccc(F)cc1-c1cccc(C2(c3ccncc3)N=C(N)N(C)C2=O)c1` (stereo not shown) [Example 39], the melting point was in the range of 233 to 235 °C. For the same compound, the IC50 on human BACE1 fell in the range of 0.01 to 0.1 µM.

At human BACE1, `CN1C(=O)C(c2ccncc2)(c2cccc(-c3cccc(F)c3F)c2)N=C1N` (stereo not shown) [Example 40] displayed an IC50 of 0.01 to 0.1 µM.

With `CN1C(=O)C(c2ccncc2)(c2cccc(-c3cc(C#N)ccc3F)c2)N=C1N` (stereo not shown) [Example 41], the melting point was in the range of 213 to 215 °C. This compound also showed an IC50 against human BACE1 of 0.01 to 0.1 µM.

Compound `CN1C(=O)C(c2ccncc2)(c2cccc(-c3cc(F)cnc3Cl)c2)N=C1N` (stereo not shown) [Example 42] showed a melting point of 120 to 122 °C. Besides, the IC50 at human BACE1 was 0.11 to 1 µM.

`CN1C(=O)C(c2ccncc2)(c2cccc(-c3cccnc3F)c2)N=C1N` (stereo not shown) [Example 43] had an IC50 at human BACE1 of 0.01 to 0.1 µM.

Compound `CN1C(=O)C(c2ccncc2)(c2cccc(-c3cccnc3)c2)N=C1N` (stereo not shown) [Example 44] came in with an IC50 at human BACE1 of 0.01 to 0.1 µM.

Turning to `CN1C(=O)C(c2ccncc2)(c2cccc(-c3ccoc3)c2)N=C1N` (stereo not shown) [Example 45], the melting point was in the range of 113 to 115 °C.

As for `CN1C(=O)C(c2ccncc2)(c2cccc(-c3ccsc3)c2)N=C1N` (stereo not shown) [Example 46], the melting point was in the range of 217 to 219 °C.

With `CN1C(=O)C(c2ccncc2)(c2cccc(-c3cc[nH]n3)c2)N=C1N` (stereo not shown) [Example 47], the melting point fell in the range of 148 to 150 °C. Also, the IC50 on human BACE1 was over 1 µM.

With `CN1C(=O)C(c2ccncc2)(c2cccc(-c3ccn(C)n3)c2)N=C1N` (stereo not shown) [Example 48], the melting point is 199 to 201 °C. On human BACE1, this compound showed a 50% inhibitory concentration (IC50) of 0.11 to 1 µM.

Consider `COc1ncccc1-c1cccc(C2(c3ccncc3)N=C(N)N(C)C2=O)c1` (stereo not shown) [Example 49], for which the melting point was in the range of 243 to 245 °C. Further, the IC50 against human BACE1 lay in the range of 0.11 to 1 µM.

`CN1C(=O)C(c2ccncc2)(c2cccc(-c3ccc(C#N)s3)c2)N=C1N` (stereo not shown) [Example 50] registered a melting point of 220 to 222 °C. The compound also displayed an IC50 against human BACE1 of 0.11 to 1 µM.

Turning to `CN1C(=O)C(c2ccncc2)(c2cccc(O)c2)N=C1N` (stereo not shown) [Example 51, 2-Amino-5-(3-hydroxyphenyl)-3-methyl-5-pyridin-4-yl-3,5-dihydro-4H-imidazol-4-one], the melting point is 245 to 247 °C. At human BACE1 (setting [1]), the IC50 was over 1 µM.

`CCCOc1cccc(C2(c3ccncc3)N=C(N)N(C)C2=O)c1` (stereo not shown) [Example 52, 2-Amino-3-methyl-5-(3-propoxyphenyl)-5-pyridin-4-yl-3,5-dihydro-4H-imidazol-4-one] displayed a melting point of 173 to 175 °C.

Consider `CN1C(=O)C(c2ccncc2)(c2cccc(-c3cccc(F)c3)c2)N=C1N` (stereo not shown) [Example 53], for which, on human BACE1, the concentration for half-maximal inhibition (IC50) lay within 0.01 to 0.1 µM.

For `CN1C(=O)C(c2ccncc2)(c2cccc(-c3cccc(OC(F)(F)F)c3)c2)N=C1N` (stereo not shown) [Example 54], the melting point lay within 208 to 210 °C. This compound also had an IC50 against human BACE1 of 0.11 to 1 µM.

On human BACE1, `CN1C(=O)C(c2ccncc2)(c2cccc(-c3cccc(C#N)c3)c2)N=C1N` (stereo not shown) [Example 55] displayed an IC50 of 0.01 to 0.1 µM.

`CN1C(=O)C(c2cccc(-c3cccnc3F)c2)(c2ccncc2F)N=C1N` (stereo not shown) [Example 58] yielded a melting point of 237 to 238 °C. On human BACE1, this compound had an IC50 of 0.01 to 0.1 µM.

Turning to `CN1C(=O)C(c2ccncc2)(c2ccc(F)c(-c3cccnc3F)c2)N=C1N` (stereo not shown) [Example 59], the melting point lay in the range of 218 to 220 °C. The IC50 at human BACE1 was in the range of 0.01 to 0.1 µM.

`Cc1cc(C2(c3cccc(-c4cccnc4)c3)N=C(N)N(C)C2=O)ccn1` (stereo not shown) [Example 60] showed an IC50 against human BACE1 of 0.01 to 0.1 µM.

Consider `Cc1cc(C2(c3cccc(-c4cncnc4)c3)N=C(N)N(C)C2=O)ccn1` (stereo not shown) [Example 61], for which, on human BACE1, the IC50 lay within 0.01 to 0.1 µM.

Compound `Cc1cc(C2(c3cccc(-c4cc(F)ccc4F)c3)N=C(N)N(C)C2=O)ccn1` (stereo not shown) [Example 62] displayed a melting point of 161 to 163 °C. The compound also showed an IC50 on human BACE1 of 0.01 to 0.1 µM.

On to `CCc1cc(C2(c3cccc(-c4cccnc4)c3)N=C(N)N(C)C2=O)ccn1` (stereo not shown) [Example 63], for which the melting point lay within 217 to 219 °C. This compound also showed an IC50 against human BACE1 of 0.01 to 0.1 µM.

`CCc1cc(C2(c3cccc(-c4cc(F)ccc4F)c3)N=C(N)N(C)C2=O)ccn1` (stereo not shown) [Example 65] gave a melting point of 188 to 192 °C.

For the compound `Cc1cc(C2(c3cccc(-c4cnccn4)c3)N=C(N)N(C)C2=O)ccn1` (stereo not shown) [Example 66], the melting point lay within 138 to 141 °C. This compound displayed a half-inhibitory concentration (IC50) on human BACE1 of 0.01 to 0.1 µM.

Turning to `CCc1cc(C2(c3cccc(-c4cnccn4)c3)N=C(N)N(C)C2=O)ccn1` (stereo not shown) [Example 67], the melting point fell in the range of 138 to 140 °C. The compound also registered a 50% inhibitory concentration (IC50) on human BACE1 of 0.01 to 0.1 µM.

For the compound `CN1C(=O)C(c2ccncc2)(c2cccc(OCC3CC3)c2)N=C1N` (stereo not shown) [Example 71], the melting point fell in the range of 200 to 202 °C. Besides, at human BACE1, the IC50 is 0.11 to 1 µM.

`Cc1cc(C2(c3cccc(-c4cncnc4)c3)N=C(N)N(C)C2=O)cc(C)n1` (stereo not shown) [Example 75]: the IC50 on human BACE1 was in the range of 0.11 to 1 µM.

On human BACE1, `CCc1cc(C2(c3cccc(-c4cncnc4)c3)N=C(N)N(C)C2=O)cc(C)n1` (stereo not shown) [Example 84] yielded an IC50 of 0.11 to 1 µM.

For the compound `CC(C)c1cc(C2(c3cccc(-c4cncnc4)c3)N=C(N)N(C)C2=O)ccn1` (stereo not shown) [Example 87], at human BACE1, the IC50 lay in the range of 0.01 to 0.1 µM.

`CCc1cc(C2(c3cccc(-c4cncnc4)c3)N=C(N)N(C)C2=O)cc(CC)n1` (stereo not shown) [Example 91]: at human BACE1, the IC50 lay in the range of 0.01 to 0.1 µM.

Take `CCc1cc(C2(c3cccc(-c4ccc(F)nc4)c3)N=C(N)N(C)C2=O)cc(CC)n1` (stereo not shown) [Example 93]: on human BACE1 (setting [1]), the IC50 lay within 0.11 to 1 µM.

Regarding `COc1ncc(C2(c3cccc(-c4cncnc4)c3)N=C(N)N(C)C2=O)c(OC)n1` (stereo not shown) [Example 97], the IC50 on human BACE1 (setting [1]) is over 1 µM.

As to `COc1ncc(C2(c3cccc(-c4cccnc4F)c3)N=C(N)N(C)C2=O)c(OC)n1` (stereo not shown) [Example 98], the IC50 at human BACE1 (setting [1]) was 0.11 to 1 µM.

`Cc1cc(C2(c3cccc(-c4cnccn4)c3)N=C(N)N(C)C2=O)cc(C)n1` (stereo not shown) [Example 101]: the IC50 at human BACE1 (setting [1]) is 0.11 to 1 µM.

In turn, `Cc1cc(C2(c3cccc(-c4cncnc4)c3)N=C(N)N(C)C2=O)cc[n+]1[O-]` (stereo not shown) [Example 102] returned a melting point of 181 to 186 °C.

With `CCc1cc([C@@]2(c3cccc(-c4cncnc4)c3)N=C(N)N(C)C2=O)cc(CC)n1` [Example 103A], the IC50 on human BACE1 is over 1 µM.

On to `CCc1cc([C@]2(c3cccc(-c4cncnc4)c3)N=C(N)N(C)C2=O)cc(CC)n1` [Example 103B], for which the IC50 against human BACE1 lay in the range of 0.01 to 0.1 µM.

With `CCc1cc([C@@]2(c3cccc(-c4ccc(F)nc4)c3)N=C(N)N(C)C2=O)cc(CC)n1` [Example 108A, (5R)-2-Amino-5-(2,6-diethylpyridin-4-yl)-5-[3-(6-fluoropyridin-3-yl)phenyl]-3-methyl-3,5-dihydro-4H-imidazol-4-one], the IC50 on human BACE1 (setting [1]) is over 1 µM.

`CCc1cc([C@]2(c3cccc(-c4ccc(F)nc4)c3)N=C(N)N(C)C2=O)cc(CC)n1` [Example 108B, (5S)-2-Amino-5-(2,6-diethylpyridin-4-yl)-5-[3-(6-fluoropyridin-3-yl)phenyl]-3-methyl-3,5-dihydro-4H-imidazol-4-one]: the IC50 on human BACE1 (setting [1]) is 0.01 to 0.1 µM.

Regarding `COc1ccc(C2(c3ccnc(-c4ccccc4)c3)N=C(N)N(C)C2=O)cc1C` (stereo not shown) [Example 109, 2-Amino-5-(4-methoxy-3-methylphenyl)-3-methyl-5-(2-phenylpyridin-4-yl)-3,5-dihydro-4H-imidazol-4-one], the IC50 at human BACE1 (setting [1]) fell in the range of 0.11 to 1 µM.

In the case of `CN1C(=O)[C@](c2ccncc2)(c2ccc(F)c(-c3cccnc3F)c2)N=C1N` [Example 113A, (5R)-2-amino-5-[4-fluoro-3-(2-fluoropyridin-3-yl)phenyl]-3-methyl-5-pyridin-4-yl-3,5-dihydro-4H-imidazol-4-one], the IC50 on human BACE1 (setting [1]) is over 1 µM.

Turning to `CN1C(=O)[C@@](c2ccncc2)(c2ccc(F)c(-c3cccnc3F)c2)N=C1N` [Example 113B, (5S)-2-amino-5-[4-fluoro-3-(2-fluoropyridin-3-yl)phenyl]-3-methyl-5-pyridin-4-yl-3,5-dihydro-4H-imidazol-4-one], the IC50 at human BACE1 (setting [1]) is over 1 µM.
